Test results from patent US7018836B1, “P-TEFb compositions, methods and screening assays” (priority 1996, dated 2006).

How the values were obtained:
human P-TEFb = target: T1, human P-TEFb (Homo sapiens, UniProt P50750); experiment: CTD kinase assay with immunoprecipitated human P-TEFb and Drosophila RNA polymerase II as substrate (FIG. 7B); type: biochemical; conditions: for IC50: immunoprecipitated human P-TEFb, 10 μM ATP, read-out: 50% inhibition point, CTD kinase assay
T1 construct: endogenous in cells; host or cells: HeLa nuclear extract (HNE), immunoprecipitate on anti-PITALRE-CT beads
Protocol: For every 50 μl of HNE, 10 μl of protein A beads containing 1 μg of bound IgG was used. After depletion of HNE, the antibody-containing beads were extensively washed with 100 times the bead volume of 20 mM HEPES (pH 7.6), 0.5% NP-40, 1% Triton X-100, and 5 mM DTT, 600 mM or indicated concentration of NaCl, and then washed with 25 times the bead volume of 20 mM HEPES (pH 7.6) and 1 mM DTT. The amounts of the washed beads used for the kinase assays and silver staining were the equivalent of 1 μl and 10 μl of HNE, respectively.
CTD kinase assays were performed in a […] reaction containing 20 mM HEPES (pH7.6), 10 μM ATP, 5 μCi [γ-^32P]ATP, 10 ng Drosophila RNA polymerase II, 5 mM MgCl2, and purified Drosophila P-TEFb or immunoprecipitated human P-TEFb. In the reactions containing DRB it was added to 50 μM unless other indicated amounts were used. The reactions were incubated at 30° C. for 1 hour.

HeLa cells = conditions: added to HeLa cells; cited from earlier work
TAK = target: T2, TAK (Homo sapiens, UniProt P50750); experiment: TAK activity assay (GST-Tat pull-down, CTD3 peptide); type: biochemical; conditions: in a manner similar to P-TEFb
T2 construct: Nuclear extract, cytoplasmic extract, or fractions containing partially purified TAK were incubated with glutathione-Sepharose beads containing GST-Tat fusion proteins; endogenous in cells; host or cells: HeLa cell extract or partially purified HeLa cytoplasmic fraction; GST-Tat made in E. coli DE3 (BL21)
Protocol: Preparation of Tat fusion proteins and the TAK pull-down assay were conducted as described by Herrmann and Rice (Herrmann and Rice, 1993; 1995) with modifications as described. Nuclear extract, cytoplasmic extract, or fractions containing partially purified TAK were incubated with glutathione-Sepharose beads containing GST-Tat fusion proteins for 1 hour at 4° C. with gentle rocking. DE3 (BL21) bacteria containing the GST-Tat expression vectors were obtained from NIH AIDS Research and Reference Reagent Program. For maximum sensitivity, GST-Tat48Δ was used unless otherwise specified. The beads (30 μl, 50% slurry) were washed 6 to 8 times with 1 ml EBCD buffer (50 mM Tris, pH 8.0, 120 mM NaCl, 0.5% Nonidet P-40, and 5 mM DTT) containing 0.03% SDS, then 2 to 4 times with Tat kinase buffer (TKB/Mg: 50 mM Tris-HCl, pH 7.6, 5 mM DTT, 5 mM MnCl2, and 4 mM MgCl2), and brought to 50 μl with TKB/Mg buffer and kinase assay mix. The final reaction contained 2 μM ATP, 10 μCi y-^32P-ATP (ICN, 3000 Ci/mmole), and 50–100 μM of CTD trimer peptide CTD3 ([…], SEQ ID NO:68). Reactions were incubated at 25° C. for 40 minutes, stopped by boiling in Laemmli sample buffer, and resolved by electrophoresis in 15% polyacrylamide: bis-acrylamide (30%:0.15%) gels.

[1] = system: DRB-sensitive runoff transcription in HeLa nuclear extract (P-TEFb-like activity); experiment: Pulse-chase transcription in HeLa nuclear extract; type: biochemical, human
Protocol: A pulse-chase protocol was used in which the template DNA was preincubated with the extract, 20 mM HEPES, pH 7.6 and 10 mM MgCl2 for 20 min at 30° C. Nucleotides, including [α-^32P]CTP were added to start the pulse; 2 min later, excess cold CTP was added to initiate the chase. Reactions were stopped after the indicated chase times. During the pulse, 10 μl reaction mixtures contained the following: 20 mM HEPES (pH 7.6), 10 mM MgCl2, 600 μM each GTP, UTP and ATP, 5 μCi of [α-^32P]CTP (˜1 μM CTP), 66 mM KCl, 10–40 μg/ml DNA template, and 3 μl of HeLa nuclear extract. For the chase, unlabeled CTP was added to bring the total concentration of CTP to 1.2 mM and the final reaction volume to 12 μl. Reaction mixtures containing 250 mM KCl, were supplemented with KCl at the beginning of the chase. Drosophila P-TEFb was added to the preincubation mixture where indicated. Reactions were stopped by adding 200 μl of stop solution (1% Sarkosyl, 50 mM Tris, pH 8.0, 50 mM EDTA, 100 mM NaCl and 100 μg/ml tRNA). The reaction mixtures were phenol extracted and the nucleic acids were ethanol precipitated, washed with 70% ethanol, dried and analyzed by gel electrophoresis.
For polyacrylamide gel electrophoresis, samples were resuspended in […] of 0.25×TBE (1×TBE contains 89 mM Tris base, 89 mM Boric acid and 2 mM EDTA) and 8 M urea, heated for 3 min at 85° C. and analyzed in 6% acrylamide-8 M urea-1×TBE gels. Denaturing agarose gel electrophoresis was performed by resuspending samples in 50% formamide-2.2 M formaldehyde-1× morpholinepropanesulfonic acid (MOPS) buffer (20 mM MOPS, pH 7.0; 5 mM sodium acetate, 1 mM EDTA) and heating the mixture at 60° C. for 5 min. Samples were resolved in a 2% agarose gel containing 2.2 M formaldehyde and IX MOPS buffer.

[2] = system: productive elongation (runoff transcripts) by RNA polymerase II in KcN; type: biochemical, Drosophila; conditions: for IC50: read-out: 50% inhibition point of runoff transcription

T1 sequence (P50750 whole entry): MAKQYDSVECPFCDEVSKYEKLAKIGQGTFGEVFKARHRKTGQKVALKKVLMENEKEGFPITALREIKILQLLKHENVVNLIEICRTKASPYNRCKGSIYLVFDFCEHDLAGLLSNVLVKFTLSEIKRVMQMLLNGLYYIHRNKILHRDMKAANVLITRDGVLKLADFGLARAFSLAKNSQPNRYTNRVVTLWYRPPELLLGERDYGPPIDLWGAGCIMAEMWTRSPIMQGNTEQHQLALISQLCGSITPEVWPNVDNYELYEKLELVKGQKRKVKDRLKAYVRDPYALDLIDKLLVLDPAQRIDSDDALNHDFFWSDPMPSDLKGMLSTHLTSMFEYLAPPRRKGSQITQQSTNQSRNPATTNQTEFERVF
T1 sequence (O60563 whole entry partner): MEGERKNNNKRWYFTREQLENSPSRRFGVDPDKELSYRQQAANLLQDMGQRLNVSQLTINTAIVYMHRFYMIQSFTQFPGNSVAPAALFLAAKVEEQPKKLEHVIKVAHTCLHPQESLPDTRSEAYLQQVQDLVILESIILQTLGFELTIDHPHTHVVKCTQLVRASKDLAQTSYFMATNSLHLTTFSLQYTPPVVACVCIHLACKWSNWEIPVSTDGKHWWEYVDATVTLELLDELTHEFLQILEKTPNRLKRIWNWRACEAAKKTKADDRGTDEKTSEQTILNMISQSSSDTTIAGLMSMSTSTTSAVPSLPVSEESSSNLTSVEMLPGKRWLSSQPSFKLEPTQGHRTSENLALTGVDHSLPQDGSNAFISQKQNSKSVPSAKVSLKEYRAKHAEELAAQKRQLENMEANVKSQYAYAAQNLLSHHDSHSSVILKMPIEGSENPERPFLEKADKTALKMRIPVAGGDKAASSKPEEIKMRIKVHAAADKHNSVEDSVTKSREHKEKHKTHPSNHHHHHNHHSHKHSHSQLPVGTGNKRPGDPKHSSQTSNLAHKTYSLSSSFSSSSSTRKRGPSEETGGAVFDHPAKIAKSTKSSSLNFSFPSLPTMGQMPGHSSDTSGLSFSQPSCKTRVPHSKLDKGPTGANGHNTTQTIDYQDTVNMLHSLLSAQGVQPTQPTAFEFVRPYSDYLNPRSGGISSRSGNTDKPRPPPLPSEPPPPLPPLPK
T2 sequence (P50750 whole entry, the tested form may be a part): as the sequence (P50750 whole entry) above
T2 sequence (O60563 whole entry, further chain, the tested form may be a part): as the sequence (O60563 whole entry partner) above
T2 sequence (P04608 1-48, further chain): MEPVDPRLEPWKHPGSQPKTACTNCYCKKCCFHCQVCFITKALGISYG

Row | SMILES | sensitivity of phosphorylation by beads containing PITALRE (human P-TEFb; 50 μM DRB) | IC50 (human P-TEFb) [µM] | amount of RNA polymerase IIo (HeLa cells) | TAK activity (TAK) | DRB concentration at which maximum inhibition occurred [1] [µM] | formation of DRB-insensitive processive elongation complexes [1] | fraction of runoff generated that was DRB-sensitive [1] [%] | fraction of runoff generated that was DRB-sensitive [2] | IC50 [2] [µM] | ratio of 50% inhibition points (H-8/DRB), CTD kinase assay (human P-TEFb) | IC50 ([1]; HeLa NE, 2 min pulse/45 sec chase, read-out: 50% inhibition point of appearance of runoff) [µM] | effect on initiation and abortive transcription ([2]; even at concentrations that severely inhibited runoff)
1 | OC[C@H]1O[C@@H](n2cnc3cc(Cl)c(Cl)cc32)[C@H](O)[C@@H]1O [DRB, 5,6-dichloro-1-β-D-ribofuranosylbenzimidazole] | sensitive | 0.65 | rapid decrease | inhibited | 30 | did not inhibit | 60 | greater than 95% | 0.7 | – | – | –
2 | CNCCNS(=O)(=O)c1cccc2cnccc12 [H-8] | – | 16 | rapid decrease | inhibited | – | – | – | – | 7 | 25 | 20 | unaffected
